Measurements taken from patent publication US20240294498A1, “FACTOR XIIA INHIBITORS” (Lunac Therapeutics Ltd, priority 2021, published 2024).

Experiments:
Assay type in all cases: biochemical
FXa = FXa (Homo sapiens, UniProt P00742); assay: Determination of selectivity: FXa inhibition (chromogenic substrate S2765); details: fold selectivity for FXIIa over FXa (human); category
How it was run: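 FXa (5 nM) preincubated with increasing compound (top 500 μM) for 10 mins at 37° C in 50 mM Tris, 137 mM NaCl pH 7.4, 5% DMSO, then S2765 added at its KM. Absorbance at 405 nm followed kinetically for 3 hours; IC50 from initial rates, converted to Ki by Cheng-Prusoff.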

FXIIa = biological target: T1, FXIIa (Homo sapiens, UniProt P00748); assay: Determination of Factor XIIa inhibition (chromogenic substrate S-2302); details: human FXIIa alpha, Ki category
T1 construct: FXIIa alpha
T1 sequence (P00748 373-615 limits assumed): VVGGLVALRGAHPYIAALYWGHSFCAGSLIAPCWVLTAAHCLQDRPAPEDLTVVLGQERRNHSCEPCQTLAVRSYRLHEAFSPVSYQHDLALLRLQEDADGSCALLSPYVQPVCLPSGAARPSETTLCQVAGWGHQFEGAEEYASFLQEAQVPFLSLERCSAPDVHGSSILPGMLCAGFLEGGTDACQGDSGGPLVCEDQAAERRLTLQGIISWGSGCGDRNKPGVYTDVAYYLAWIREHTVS
T1 sequence (P00748 20-372 partner limits assumed): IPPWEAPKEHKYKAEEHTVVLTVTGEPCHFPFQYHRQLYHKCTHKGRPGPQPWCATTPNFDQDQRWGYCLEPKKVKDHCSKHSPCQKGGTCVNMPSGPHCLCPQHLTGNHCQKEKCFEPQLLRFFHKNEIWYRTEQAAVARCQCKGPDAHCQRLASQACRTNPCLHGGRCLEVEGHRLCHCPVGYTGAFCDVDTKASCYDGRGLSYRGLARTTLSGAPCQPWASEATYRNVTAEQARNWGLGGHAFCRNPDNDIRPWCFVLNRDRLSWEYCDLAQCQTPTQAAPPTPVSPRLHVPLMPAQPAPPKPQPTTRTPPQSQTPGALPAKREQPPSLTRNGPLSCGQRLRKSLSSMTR
How it was run: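 Compound preincubated with 10 nM FXIIa for 10 min at 37° C in 50 mM Tris, 137 mM NaCl, pH 7.4, 5% DMSO, top concentration 500 μM; S-2302 added at Km. pNA release followed at 405 nm for 3 h; IC50 from initial rates, converted to Ki via Ki = IC50/(1+[S]/Km).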

thrombin = biological target: T2, thrombin (Homo sapiens, UniProt P00734); assay: Determination of selectivity: thrombin inhibition (chromogenic substrate GPR); details: fold selectivity for FXIIa over thrombin (human); category
T2 construct: FXa (5 nM) and thrombin (5 nM)
How it was run: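 Thrombin (5 nM) preincubated with increasing compound concentrations (top 500 μM, 5% DMSO) 10 min at 37 °C in 50 mM Tris, 137 mM NaCl pH 7.4, then GPR chromogenic substrate at its KM. pNA release read kinetically at 405 nm for 3 h at 37 °C. IC50 from initial rates, converted to Ki via Cheng–Prusoff.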

Chain of FXa (P00742 235-488 limits assumed): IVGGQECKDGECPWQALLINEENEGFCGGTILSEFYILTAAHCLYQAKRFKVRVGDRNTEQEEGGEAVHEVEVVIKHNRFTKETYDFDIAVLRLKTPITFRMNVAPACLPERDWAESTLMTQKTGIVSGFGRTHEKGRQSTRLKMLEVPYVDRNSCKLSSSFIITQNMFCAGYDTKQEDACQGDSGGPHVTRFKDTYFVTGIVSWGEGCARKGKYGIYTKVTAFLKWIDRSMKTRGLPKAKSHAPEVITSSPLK
Chain of FXa (P00742 41-179 partner limits assumed): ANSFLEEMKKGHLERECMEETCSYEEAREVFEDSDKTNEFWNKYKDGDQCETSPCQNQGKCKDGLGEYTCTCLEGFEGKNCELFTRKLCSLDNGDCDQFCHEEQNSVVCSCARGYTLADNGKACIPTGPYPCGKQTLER

With `CN(CCN1CCCC1)C(=O)[C@H]1CCCN[C@H]1C(=O)N1C[C@@H](C(F)(F)F)C[C@H]1C(=O)NCc1ccc2c(cnn2C)c1` [Example M06085, (2R,3S)-N-methyl-2-((2S,4S)-2-(((1-methyl-1H-indazol-5-yl)methyl)carbamoyl)-4-(trifluoromethyl)pyrrolidine-1-carbonyl)-N-(2-(pyrrolidin-1-yl)ethyl)piperidine-3-carboxamide] the “FXa (human)/FXIIa alpha (human)” value (FXa) was “∘∘∘”, the Ki (FXIIa) was under 200 nM and the “Thrombin (human)/FXIIa alpha (human)” value (thrombin) was “+++ (fold selectivity values greater than 100)”.
For `Cc1ccc(C[C@@H]2C[C@@H](C(=O)NCCCn3ccnc3)N(C(=O)[C@@H]3NCCC[C@@H]3C(=O)N3CCC[C@@H]3C(F)(F)F)C2)cc1` [Example M06089], the “FXa (human)/FXIIa alpha (human)” value (FXa) was “∘∘∘”, the Ki (FXIIa) was 200 to 800 nM and the “Thrombin (human)/FXIIa alpha (human)” value (thrombin) was “+++ (fold selectivity values greater than 100)”.
`Cc1ccc(C[C@@H]2C[C@@H](C(=O)NCc3ccc4c(cnn4C)c3)N(C(=O)[C@@H]3NCCC[C@@H]3C(=O)N(C)CCN3CC(F)C3)C2)cc1` [Example M06099, (2R,3S)-N-(2-(3-fluoroazetidin-1-yl)ethyl)-N-methyl-2-((2S,4R)-2-(((1-methyl-1H-indazol-5-yl)methyl)carbamoyl)-4-(4-methylbenzyl)pyrrolidine-1-carbonyl)piperidine-3-carboxamide] was tested, and the “FXa (human)/FXIIa alpha (human)” value (FXa) was “∘∘∘”, the Ki (FXIIa) was under 200 nM and the “Thrombin (human)/FXIIa alpha (human)” value (thrombin) was “+++ (fold selectivity values greater than 100)”.
`Cc1ccc(C[C@@H]2C[C@@H](C(=O)NCc3ccc4c(cnn4C)c3)N(C(=O)[C@@H]3NCCC[C@@H]3C(=O)N(C)CCN3CC[C@H](F)C3)C2)cc1` [Example M06109, (2R,3S)-N-(2-((S)-3-fluoropyrrolidin-1-yl)ethyl)-N-methyl-2-((2S,4R)-2-(((1-methyl-1H-indazol-5-yl)methyl)carbamoyl)-4-(4-methylbenzyl)pyrrolidine-1-carbonyl)piperidine-3-carboxamide] was tested, and the “FXa (human)/FXIIa alpha (human)” value (FXa) was “∘∘∘”, the Ki (FXIIa) was under 200 nM and the “Thrombin (human)/FXIIa alpha (human)” value (thrombin) was “+++ (fold selectivity values greater than 100)”.
For `Cc1ccc(C[C@@H]2C[C@@H](C(=O)NCc3ccc4c(cnn4C)c3)N(C(=O)[C@@H]3NCCC[C@@H]3C(=O)N(C)C3CCN(C4CC4)CC3)C2)cc1` [Example M06112, (2R,3S)-N-(1-cyclopropylpiperidin-4-yl)-N-methyl-2-((2S,4R)-2-(((1-methyl-1H-indazol-5-yl)methyl)carbamoyl)-4-(4-methylbenzyl)pyrrolidine-1-carbonyl)piperidine-3-carboxamide], the “FXa (human)/FXIIa alpha (human)” value (FXa) was “∘∘∘”, the Ki (FXIIa) was under 200 nM and the “Thrombin (human)/FXIIa alpha (human)” value (thrombin) was “+++ (fold selectivity values greater than 100)”.
In the case of `CO[C@H]1CCN(CCN(C)C(=O)[C@H]2CCCN[C@H]2C(=O)N2C[C@H](Cc3ccc(C)cc3)C[C@H]2C(=O)NCc2ccc3c(cnn3C)c2)C1` [Example M06128, (2R,3S)-N-(2-((S)-3-methoxypyrrolidin-1-yl)ethyl)-N-methyl-2-((2S,4R)-2-(((1-methyl-1H-indazol-5-yl)methyl)carbamoyl)-4-(4-methylbenzyl)pyrrolidine-1-carbonyl)piperidine-3-carboxamide], the “FXa (human)/FXIIa alpha (human)” value (FXa) is reported as “∘∘∘”, the Ki (FXIIa) is reported as under 200 nM and the “Thrombin (human)/FXIIa alpha (human)” value (thrombin) is reported as “+++ (fold selectivity values greater than 100)”.
In the case of `Cc1ccc(C[C@@H]2C[C@@H](C(=O)NCc3ccc4c(cnn4C)c3)N(C(=O)[C@@H]3NCCC[C@@H]3C(=O)N(C)CCN3CC(F)(F)C3)C2)cc1` [Example M06129, (2R,3S)-N-(2-(3,3-difluoroazetidin-1-yl)ethyl)-N-methyl-2-((2S,4R)-2-(((1-methyl-1H-indazol-5-yl)methyl)carbamoyl)-4-(4-methylbenzyl)pyrrolidine-1-carbonyl)piperidine-3-carboxamide], the “FXa (human)/FXIIa alpha (human)” value (FXa) is reported as “∘∘∘”, the Ki (FXIIa) is reported as under 200 nM and the “Thrombin (human)/FXIIa alpha (human)” value (thrombin) is reported as “+++ (fold selectivity values greater than 100)”.
For `Cc1ccc(C[C@@H]2C[C@@H](C(=O)NCc3ccc4c(cnn4C)c3)N(C(=O)[C@@H]3NCCC[C@@H]3C(=O)N(C)CCN(C)CCF)C2)cc1` [Example M06131, (2R,3S)-N-(2-((2-fluoroethyl)(methyl)amino)ethyl)-N-methyl-2-((2S,4R)-2-(((1-methyl-1H-indazol-5-yl)methyl)carbamoyl)-4-(4-methylbenzyl)pyrrolidine-1-carbonyl)piperidine-3-carboxamide], the “FXa (human)/FXIIa alpha (human)” value (FXa) was “∘∘∘”, the Ki (FXIIa) was under 200 nM and the “Thrombin (human)/FXIIa alpha (human)” value (thrombin) was “+++ (fold selectivity values greater than 100)”.
